The supplement of paper PMC8024199
± gives the standard deviation of the averaged measurements.

How the values were obtained:
Assay in all cases: drug sensitivity score (DSS) (DSS score); higher = more sensitive (stronger growth inhibition); extreme values may be limits of the assay
[1] = tested on: Ba/F3 P210-BCR-ABL1 RUNX1-/- (mouse)
Method in brief: (§1)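 Mouse Ba/F3 cells carrying P210-BCR-ABL1, CRISPR/Cas9-edited at runx1 exon 4 or edited-control clones, were screened against a 528-compound library on pre-printed 384-well plates. Each compound ran at five concentrations spanning a 10,000-fold range, with 10,000 cells per well in RPMI with 10% FBS for 72 h at 37 °C and 5% CO2. CellTiter-Glo luminescence was scaled between vehicle and positive-control wells. A drug sensitivity score summarised each dose-response, averaged over two replicates.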

[2] = tested on: Ba/F3 P210-BCR-ABL1 RUNX1-/mut (mouse)
Method in brief: as §1

[3] = tested on: Ba/F3 P210-BCR-ABL1 RUNX1wt/wt control (mouse)
Method in brief: as §1

CC(C)n1nc(-c2ccc3oc(N)nc3c2)c2c(N)ncnc21 [Sapanisertib]
drug sensitivity score [1]: 16.9 ± 0.35 | drug sensitivity score [2]: 16.6 ± 2.5 | drug sensitivity score [3]: 11.3 ± 0.49

CC(O)(CS(=O)(=O)c1ccc(F)cc1)C(=O)Nc1ccc(C#N)c(C(F)(F)F)c1 (configuration not stated) [Bicalutamide]
drug sensitivity score [1]: 0.25 ± 0.35 | drug sensitivity score [2]: 1.15 ± 1.6 | drug sensitivity score [3]: 0

CO[C@H]1C(=O)[C@]2(C)[C@@H](OC)C[C@H]3OC[C@@]3(OC(C)=O)[C@H]2[C@H](OC(=O)c2ccccc2)[C@]2(O)C[C@H](OC(=O)[C@H](O)[C@@H](NC(=O)OC(C)(C)C)c3ccccc3)C(C)=C1C2(C)C [Cabazitaxel]
drug sensitivity score [1]: 35.9 ± 1.4 | drug sensitivity score [2]: 26.2 ± 3.5 | drug sensitivity score [3]: 13.55 ± 0.071

CCN(CC)CCN(Cc1ccc(-c2ccc(C(F)(F)F)cc2)cc1)C(=O)Cn1c(SCc2ccc(F)cc2)nc(=O)c2c1CCC2 [Darapladib]
drug sensitivity score [1]: 1.9 ± 0.14 | drug sensitivity score [2]: 2.65 ± 3.2 | drug sensitivity score [3]: 0

CN[C@@H](C)C(=O)N[C@H]1CN(C(=O)CC(C)C)CC[C@H]2CC[C@@H](C(=O)NC(c3ccccc3)c3ccccc3)N2C1=O [AT-406]
drug sensitivity score [1]: 18.4 ± 1.8 | drug sensitivity score [2]: 4.4 ± 6.2 | drug sensitivity score [3]: 13 ± 1.4

CCC(C)(C)C(=O)O[C@H]1C[C@@H](C)C=C2C=C[C@H](C)[C@H](CC[C@@H]3C[C@@H](O)CC(=O)O3)[C@H]21 [Simvastatin]
drug sensitivity score [1]: 0.4 ± 0.42 | drug sensitivity score [2]: 0.6 ± 0.85 | drug sensitivity score [3]: 0.05 ± 0.071

CO[C@H]1CC[C@H](N2C(=O)CNc3ncc(-c4ccc(C(C)(C)O)nc4)nc32)CC1 [CC-223]
drug sensitivity score [1]: 7.25 ± 0.64 | drug sensitivity score [2]: 6.65 ± 2.2 | drug sensitivity score [3]: 2.45 ± 0.071

CCCCCCCCCCCCCCCCCCOP(=O)([O-])OC1CC[N+](C)(C)CC1 [Perifosine]
drug sensitivity score [1]: 0 | drug sensitivity score [2]: 0 | drug sensitivity score [3]: 0

CC(C)[C@H]1C(=O)N[C@@H](CCCNC(=N)N)C(=O)NCC(=O)N[C@@H](CC(=O)O)C(=O)N[C@H](Cc2ccccc2)C(=O)N1C [Cilengitide]
drug sensitivity score [1]: 0 | drug sensitivity score [2]: 0 | drug sensitivity score [3]: 0

Cc1ccc(=O)n(-c2ccccc2)c1 [Pirfenidone]
drug sensitivity score [1]: 0 | drug sensitivity score [2]: 0 | drug sensitivity score [3]: 0

C1=N/C2=N/c3ccc(OCCN4CCCC4)c(c3)COC/C=C/COCc3cccc(c3)C(=C1)N2 [Pacritinib]
drug sensitivity score [1]: 13.8 ± 1.6 | drug sensitivity score [2]: 10.8 ± 2.6 | drug sensitivity score [3]: 7 ± 0.14

O=C(Nc1cccnc1)N1CCC(Cc2cccc(Oc3ccc(C(F)(F)F)cn3)c2)CC1 [PF-3845]
drug sensitivity score [1]: 2.15 ± 0.64 | drug sensitivity score [2]: 1.9 ± 2.7 | drug sensitivity score [3]: 2.1 ± 0.14

FC(F)c1nc2ccccc2n1-c1nc(N2CCOCC2)nc(N2CCOCC2)n1 [ZSTK474]
drug sensitivity score [1]: 9.85 ± 2.6 | drug sensitivity score [2]: 9.75 ± 5.9 | drug sensitivity score [3]: 5.3 ± 0.85

Nc1nc(Nc2ccc3c(c2)CC[C@@H](N2CCCC2)CC3)nn1-c1cc2c(nn1)-c1ccccc1CCC2 [BGB324]
drug sensitivity score [1]: 7.3 ± 0.57 | drug sensitivity score [2]: 6.35 ± 1.2 | drug sensitivity score [3]: 5.65 ± 0.21

Cc1nc2cccc(N)c2c(=O)n1C1CCC(=O)NC1=O (configuration not stated) [CC122]
drug sensitivity score [1]: 0 | drug sensitivity score [2]: 0 | drug sensitivity score [3]: 0

Nc1cc(F)ccc1NC(=O)c1ccc(CNC(=O)/C=C/c2cccnc2)cc1 [Tucidinostat]
drug sensitivity score [1]: 9.05 ± 2.8 | drug sensitivity score [2]: 8.05 ± 4.6 | drug sensitivity score [3]: 4.9 ± 0.14

CCOC(=O)CCNc1cc(N2CCc3ccccc3CC2)nc(-c2ccccn2)n1 [GSK-J4]
drug sensitivity score [1]: 5.1 ± 4.8 | drug sensitivity score [2]: 4.5 ± 3.8 | drug sensitivity score [3]: 2.45 ± 0.78

O=C(/C=C\n1cnc(-c2cc(C(F)(F)F)cc(C(F)(F)F)c2)n1)NNc1cnccn1 [Selinexor]
drug sensitivity score [1]: 24 ± 1.7 | drug sensitivity score [2]: 23 ± 0.99 | drug sensitivity score [3]: 16.55 ± 0.071

CC[C@H](Nc1ncnc2[nH]cnc12)c1nc2cccc(F)c2c(=O)n1-c1ccccc1 [Idelalisib]
drug sensitivity score [1]: 4.7 ± 2.5 | drug sensitivity score [2]: 2.3 ± 2.5 | drug sensitivity score [3]: 0
